The values below come from US20190224192A1, “Stable Pharmaceutical Composition of Vortioxetine Hydrobromide” (Cipla Limited, priority 2016, published 2019).

The conditions of series [1]: cited from earlier work.
Series [2] is described as follows: in vitro dissolution of premix compared to beta form. Type of series: physicochemical. The conditions noted are these: unit assumed. From the text:
FIG. 2: FIGS. 2a and 2b show dissolution data of a Vortioxetine hydrobromide premix according to the present invention compared to the beta form of Vortioxetine hydrobromide.
In one aspect, the present invention provides a Vortioxetine hydrobromide premix having stability and dissolution properties such that it can be easily formulated into pharmaceutically useful composition.

Series [3] is described as follows: solid state form stability (conversion of form on stability). Type of series: physicochemical. The text has this: WO 2016/062860 relates to a pharmaceutical composition comprising amorphous Vortioxetine hydrobromide, a process for the preparation thereof, use thereof and a method for stabilizing Vortioxetine hydrobromide in a pharmaceutical composition.
However, this technique is not desirable in cases where the melting point of the drug to be converted is very high. For the process to work, it is required that the drug undergoes complete melting, which would lead to complete conversion. The melting point of the drug Vortioxetine is very high, in order of 227-230 degrees. The normal temperatures that are employed in the laboratory is around 180 C, maximizing to 200 C. The HME in this case was attempted with Klucel and Kollidone VA 64. […] This could be attributed to the incomplete melting of the drug and thus incomplete form conversion.

Counter-ions that a name gives are not always drawn.

Take `Br.Cc1ccc(Sc2ccccc2N2CCNCC2)c(C)c1` [Beta Form, Vortioxetine hydrobromide]: the aqueous solubility result in series [1] is “about 1.2 mg/ml”. In addition, the in vitro dissolution is 14% in series [2] (Time in min 15); 20% in series [2] (Time in min 30); 29% in series [2] (Time in min 60); 37% in series [2] (Time in min 120); 49% in series [2] (Time in min 240); 61% in series [2] (Time in min 480). In addition, the in vitro dissolution in series [2] (Time in min 600) and in series [2] (Time in min 720) was 63% in each case.

As to `Cc1ccc(Sc2ccccc2N2CCNCC2)c(C)c1` [amorphous Vortioxetine hydrobromide, Vortioxetine hydrobromide], the “solid state form conversion on stability” value in series [3] is reported as “gets converted to a more stable crystalline form”.
